Laboratory results from publication PMC10413841, “Exploration of Thiourea-Based Scaffolds for the Construction of Bacterial Ureases Inhibitors” (ACS Omega, 2023).
Where “and” joins values, the source holds several entries; their conditions need not be identical. Identical values can stand only once. Like-named read-outs stand apart in the source and are kept apart here.

Tests used:
[1] = biological target: T1, native S. pasteurii CCM 2056 urease (Sporosarcina pasteurii, UniProt P41020); experiment: Inhibition of purified native urease, indophenol (Berthelot) ammonia assay; type: biochemical; settings: for Ki: purified native enzyme, EI dissociation constant from Lineweaver-Burke plots, urea up to 30 mM, 3 mM phosphate buffer; for type (mode) of inhibition / α quantifier between ESI dissociation constant Ki* and EI dissociation constant Ki: purified S. pasteurii urease
T1 construct: The S. pasteurii CCM 2056 cells were used as the source of a native enzyme; endogenous in cells; host or cells: S. pasteurii CCM 2056 culture; endogenous enzyme purified in house from the sonicated cell extract by five-step chromatography
T1 sequence (P41022 whole entry): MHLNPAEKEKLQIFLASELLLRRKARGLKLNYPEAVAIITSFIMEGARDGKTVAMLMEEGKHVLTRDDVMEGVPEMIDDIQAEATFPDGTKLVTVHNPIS
T1 sequence (P41021 whole entry, further chain): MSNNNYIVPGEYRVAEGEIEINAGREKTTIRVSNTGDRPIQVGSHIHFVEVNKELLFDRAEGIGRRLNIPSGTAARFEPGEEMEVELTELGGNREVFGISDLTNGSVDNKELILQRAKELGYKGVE
T1 sequence (P41020 whole entry): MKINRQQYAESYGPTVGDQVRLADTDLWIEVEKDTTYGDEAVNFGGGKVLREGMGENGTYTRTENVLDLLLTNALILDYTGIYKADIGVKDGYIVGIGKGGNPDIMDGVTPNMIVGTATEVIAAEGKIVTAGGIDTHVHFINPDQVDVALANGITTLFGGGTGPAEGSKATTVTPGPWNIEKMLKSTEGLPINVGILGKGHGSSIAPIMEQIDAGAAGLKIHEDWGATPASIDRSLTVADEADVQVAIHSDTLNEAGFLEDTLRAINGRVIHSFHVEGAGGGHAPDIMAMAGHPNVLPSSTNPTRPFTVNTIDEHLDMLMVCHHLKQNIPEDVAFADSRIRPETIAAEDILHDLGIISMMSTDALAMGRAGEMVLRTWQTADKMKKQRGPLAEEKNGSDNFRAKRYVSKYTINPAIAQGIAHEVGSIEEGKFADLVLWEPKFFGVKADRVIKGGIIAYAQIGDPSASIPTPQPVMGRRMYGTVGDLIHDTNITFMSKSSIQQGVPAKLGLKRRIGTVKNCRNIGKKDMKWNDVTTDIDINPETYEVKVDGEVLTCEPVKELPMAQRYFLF
Description: The kinetic properties of the compounds as potential urease inhibitors were evaluated against native enzyme purified from S. pasteurii CCM 2056 culture. Residual enzyme activity was expressed as ammonia release from urea followed quantitively using the Berthelot reaction. All of the studied structures were reversibly inhibitory, with dissociation constants ranging from submicromolar to moderate micromolar concentrations (Table 1). The α quantifier between the enzyme-substrate-inhibitor complex (ESI) dissociation constant Ki* and the EI dissociation constant Ki [drawing 1] was calculated to determine the influence of substrate binding on the stability of the EI complex. […] For modeled compounds 19, 16, and 29, the values of α were 152.01, 38.04, and 14.52, respectively. […] For comparison, the α value of compound 52 was 1.37.
The S. pasteurii CCM 2056 cells were used as the source of a native enzyme. The culture medium was made of 20 g/L yeast extract. One day after the inoculation, the medium was further supplemented with 1 mM NiCl2 and 1% urea. After 2 more days of growth, the cells were centrifuged and disintegrated via sonication. Enzyme purification from the cell extract was conducted using a five-step chromatographic method as previously reported.[50]
Inhibition of the purified urease was measured using the indophenol assay for ammonia concentration.[65] The kinetic assays in 3 mM phosphate buffer contained the purified enzyme, studied thiourea analogues, and a range of urea concentrations up to saturating 30 mM. Total progress curves were analyzed with the addition of the enzyme at the reaction start. Assays were terminated with the sequential addition of 100 μL of M1 ([…] sodium nitroprusside, 0.53 M phenol) and M2 (0.625 M sodium hydroxide, 47.1 mM sodium hypochlorite) solution to 50 μL of reaction mixture sample. After 15 min of color development, absorbance at 650 nm was measured. […] In order to verify the inhibition mode as well as calculate the dissociation constant for EI complex, Lineweaver–Burke curves were plotted (1/v = f(1/[S])). For noncompetitive or mixed inhibition mode, Ki was calculated from plots of the LB curves slope as a function of inhibitor concentration.

[2] = tested on: live cells of P. mirabilis PCM 543; experiment: Whole-cell ureolysis: ammonia release from urea in live cells; type: cell-based, Proteus mirabilis; settings: urea hydrolysis in live cells, 30 mM urea, 10 mM PBS, read-out: IC50 [μM] (± SD) P. mirabilis cells
Description: Proteus mirabilis PCM 543 was cultured as described for S. pasteurii except for nickel ions—0.3 mM NiCl2 was used in the growth medium. Cells harvested by centrifugation were resuspended in 10 mM PBS and used for urease activity measurements. Assays were conducted in 10 mM PBS containing 30 mM urea and different concentrations of urease inhibitors and ammonia quantified by indophenol assay.

[3] = tested on: live cells of S. pasteurii CCM 2056; experiment: as above; type: cell-based, Sporosarcina pasteurii; settings: for IC50: Sporosarcina pasteurii, CCM2056
[4] = urea hydrolysis in live cells, 30 mM urea, 10 mM PBS, read-out: IC50 [μM] (± SD) S. pasteurii cells

Row | SMILES | Ki ([1]; read-out: Ki [μM] (± SD)) | IC50 ([2]; Proteus mirabilis) [µM] | IC50 [3, 4] [µM] | other results
1 | Cc1ccc(C2CC(c3ccccc3)=NN2C(N)=S)cc1 (stereo not shown) [Compound 33, 3-Phenyl-5-(p-tolyl)-4,5-dihydro-1H-pyrazole-1-carbothioamide] | 87.1 ± 9.29 µM | – | – | –
2 | NC(=S)N/N=C(\C=C\c1ccc(Cl)cc1)c1ccccc1 [Compound 23, (E)-2-((E)-3-(4-Chlorophenyl)-1-phenylallylidene)hydrazine-1-carbothioamide] | 14.9 ± 2.01 µM | 430 ± 26.9 | 58.4 ± 3.21 | –
3 | COc1ccc(C2=CC(c3ccccc3)NC(=S)N2)c(OC)c1 (stereo not shown) [Compound 41, 6-(2,4-Dimethoxyphenyl)-4-phenyl-3,4-dihydropyrimidine-2(1H)-thione] | 47.7 ± 6.31 µM | – | – | –
4 | NC(=S)N/N=C/c1ccc(Cl)cc1 [Compound 17, (E)-2-(4-Chlorobenzylidene)hydrazine-1-carbothioamide] | 8.15 ± 0.908 µM | 454 ± 26.3 | 16.4 ± 0.94 | –
5 | S=C(NCc1ccccc1)Nc1nc(-c2ccccc2)cs1 [Compound 49, 1-Benzyl-3-(4-phenylthiazol-2-yl)thiourea] | 46 ± 3.71 µM | 554 ± 18.8 | 476 ± 26.1 | –
6 | COc1ccc(C(/C=C/c2ccccc2)=N/NC(N)=S)c(OC)c1 [Compound 26, (E)-2-((E)-1-(2,4-Dimethoxyphenyl)-3-phenylallylidene)hydrazine-1-carbothioamide] | 3.02 ± 0.23 µM | – | 134 ± 11.4 | type (mode) of inhibition [1]: noncompetitive
7 | COc1ccc(/C=N/NC(N)=S)cc1OC [Compound 18, (E)-2-(3,4-Dimethoxybenzylidene)hydrazine-1-carbothioamide] | 37.5 ± 4.79 µM | – | – | –
8 | COc1ccc(-c2csc(NC(=S)NCc3ccccc3)n2)c(OC)c1 [Compound 51, 1-Benzyl-3-(4-(2,4-dimethoxyphenyl)thiazol-2-yl)thiourea] | – | 509 ± 31.6 | 326 ± 18.7 | Ki ([1]; Ki [μM] (± SD)): 22.2 ± 2.66 µM
9 | SC1=NC(c2ccccc2)=CC(c2ccccc2)N1 (stereo not shown) [Compound 37, 4,6-Diphenyl-3,4-dihydropyrimidine-2(1H)-thione] | 36.2 ± 5.2 µM | – | – | –
10 | C/C(=N\NC(N)=S)c1ccccc1 [Compound 19, (E)-2-(1-Phenylethylidene)hydrazine-1-carbothioamide] | 0.39 µM and 0.391 µM | 568 ± 47.7 | 194 ± 12.5 | α quantifier between ESI dissociation constant Ki* and EI dissociation constant Ki [1]: 152.01
11 | S=C1NC(c2ccccc2)=CC(c2ccc(Cl)cc2)N1 (stereo not shown) [Compound 39, 4-(4-Chlorophenyl)-6-phenyl-3,4-dihydropyrimidine-2(1H)-thione] | 30.2 ± 4.23 µM | – | – | –
12 | Cc1ccc(C2C=C(c3ccccc3)NC(=S)N2)cc1 (stereo not shown) [Compound 38, 6-Phenyl-4-(p-tolyl)-3,4-dihydropyrimidine-2(1H)-thione] | 27.4 ± 3.47 µM | – | – | –
13 | C/C(=N\NC(N)=S)c1ccc(O)cc1 [Compound 20, (E)-2-(1-(4-Hydroxyphenyl)ethylidene)hydrazine-1-carbothioamide] | 33.4 ± 2.61 µM | 513 ± 33.9 | 87.6 ± 9.07 | type (mode) of inhibition [1]: noncompetitive
14 | Oc1ccc(-c2csc(NC(=S)NCc3ccccc3)n2)cc1 [Compound 52, 1-Benzyl-3-(4-(4-hydroxyphenyl)thiazol-2-yl)thiourea] | 2.76 µM | 304 ± 14 | 76.3 ± 4.5 | type (mode) of inhibition [1]: noncompetitive inhibition; α quantifier between ESI dissociation constant Ki* and EI dissociation constant Ki [1]: 1.37; IC50 [2]: 304 ± 13.9 µM; fold change of inhibitory activity (IC50) against S. pasteurii cells compared to nonhydroxylated analogue 49 ([3]; 52 versus 49): over 6 fold
15 | COc1ccc(-c2csc(NC(=S)NCc3ccccc3)n2)cc1 [Compound 50, 1-Benzyl-3-(4-(4-methoxyphenyl)thiazol-2-yl)thiourea] | 41.4 ± 3.73 µM | – | – | –
16 | NC(=S)N1N=C(c2ccccc2)CC1c1ccc(F)cc1 (stereo not shown) [Compound 35, 5-(4-Fluorophenyl)-3-phenyl-4,5-dihydro-1H-pyrazole-1-carbothioamide] | 46.5 ± 6.3 µM | – | – | –

Row | SMILES | Ki ([1]; read-out: Ki [μM] (± SD)) | IC50 ([2]; Proteus mirabilis) [µM] | IC50 [3, 4] [µM] | other results
17 | Cc1ccc(/C=N/NC(=S)NN)cc1 [Compound 28, (E)-N′-(4-Methylbenzylidene)hydrazinecarbothiohydrazide] | 13.5 ± 3.16 µM | 664 ± 35.2 | 118 ± 7.7 | –
18 | Fc1ccc(C2C=C(c3ccccc3)NC(=S)N2)cc1 (stereo not shown) [Compound 40, 4-(4-Fluorophenyl)-6-phenyl-3,4-dihydropyrimidine-2(1H)-thione] | 5.55 ± 0.873 µM | – | – | –
19 | Cc1ccc(/C=N/NC(N)=S)cc1 [Compound 16, (E)-2-(4-Methylbenzylidene)hydrazine-1-carbothioamide] | 0.99 µM and 0.998 µM | 282 ± 32.4 | 9.92 ± 1.31 | α quantifier between ESI dissociation constant Ki* and EI dissociation constant Ki [1]: 38.04
20 | NNC(=S)N/N=C(\C=C\c1ccc(Cl)cc1)c1ccccc1 [Compound 31, N′-((1E,2E)-3-(4-Chlorophenyl)-1-phenylallylidene)hydrazinecarbothiohydrazide] | 12.8 ± 1.54 µM | – | 132 ± 6.9 | –
21 | NC(=S)N1N=C(c2ccccc2)CC1c1ccccc1 (stereo not shown) [Compound 32, 3,5-Diphenyl-4,5-dihydro-1H-pyrazole-1-carbothioamide] | 71.7 ± 8.26 µM | – | – | –
22 | NC(=S)N/N=C(\C=C\c1ccccc1)c1ccc(O)cc1 [Compound 25, (E)-2-((E)-1-(4-Hydroxyphenyl)-3-phenylallylidene)hydrazine-1-carbothioamide] | 5.4 ± 0.327 µM | 763 ± 41.1 | 149 ± 8.7 | type (mode) of inhibition [1]: noncompetitive
23 | S=C(NCc1ccccc1)Nc1nc(-c2ccc(Br)cc2)cs1 [Compound 53, 1-Benzyl-3-(4-(4-bromophenyl)thiazol-2-yl)thiourea] | 10.7 ± 0.79 µM | 638 ± 48.2 | 416 ± 32.4 | –
24 | NC(=S)N/N=C(\C=C\c1ccc(F)cc1)c1ccccc1 [Compound 24, (E)-2-((E)-3-(4-Fluorophenyl)-1-phenylallylidene)hydrazine-1-carbothioamide] | 24.2 ± 1.52 µM | 510 ± 17.8 | 36.2 ± 2.84 | –
25 | COc1ccc(C2=NN(C(N)=S)C(c3ccccc3)C2)c(OC)c1 (stereo not shown) [Compound 36, 3-(2,4-Dimethoxyphenyl)-5-phenyl-4,5-dihydro-1H-pyrazole-1-carbothioamide] | 57.7 ± 4.42 µM | – | – | –
26 | NNC(=S)N/N=C/c1ccccc1 [Compound 27, (E)-N′-Benzylidenehydrazinecarbothiohydrazide] | 8.31 ± 0.438 µM | 544 ± 17.9 | 11.6 ± 0.65 | –
27 | NC(=S)N1N=C(c2ccccc2)CC1c1ccc(Cl)cc1 (stereo not shown) [Compound 34, 5-(4-Chlorophenyl)-3-phenyl-4,5-dihydro-1H-pyrazole-1-carbothioamide] | 30.5 ± 2.84 µM | – | – | –
28 | Cc1ccc(/C=C/C(=N\NC(=S)NN)c2ccccc2)cc1 [Compound 30, N′-((1E,2E)-1-Phenyl-3-(p-tolyl)allylidene)hydrazinecarbothiohydrazide] | 59.5 ± 4.4 µM | – | 553 ± 27.8 | –
29 | NC(=S)N/N=C/c1ccccc1 [Compound 15, (E)-2-Benzylidenehydrazine-1-carbothioamide] | 3.57 ± 0.182 µM | 347 ± 23.1 | 3.83 ± 0.282 | IC50 ([3]; Gram-positive S. pasteurii cells, ureolysis inhibition, read-out: IC50 in S. pasteurii cells (unit inferred)): 3.8 ± 0.2 µM
30 | Cc1ccc(/C=C/C(=N\NC(N)=S)c2ccccc2)cc1 [Compound 22, (E)-2-((E)-1-Phenyl-3-(p-tolyl)allylidene)hydrazine-1-carbothioamide] | 5.18 ± 0.691 µM | 1110 ± 126 | 764 ± 50.3 | –
31 | NC(=S)N/N=C(\C=C\c1ccccc1)c1ccccc1 [Compound 21, (E)-2-((E)-1,3-Diphenylallylidene)hydrazine-1-carbothioamide] | 6.13 ± 0.714 µM | 519 ± 27.6 | 102 ± 8.4 | type (mode) of inhibition [1]: noncompetitive
32 | NNC(=S)N/N=C(\C=C\c1ccccc1)c1ccccc1 [Compound 29, N′-((1E,2E)-1,3-Diphenylallylidene)hydrazinecarbothiohydrazide] | 2.24 µM | – | – | α quantifier between ESI dissociation constant Ki* and EI dissociation constant Ki [1]: 14.52
